Test results reported in patent US20160346249A1 (priority 2012, published 2016).
Read-outs that look alike come from different tables or passages of the source.

Tests used:
[1] = NADPH dependent metabolism, rat liver microsomes; assay type: in vitro ADME; conditions: RLM, from EB-1010 10 μM
Method: Bicifadine (10 μM) was used as the positive control and the formation of the lactam metabolites of bicifadine (M-12) was monitored.

[2] = Acute intravenous or oral mouse bioavailability study; assay type: in vivo; conditions: plasma, fasted male mice, oral 6 mg/kg vs IV 5 mg/kg
Method: Fasted male mice were used in this study. Concentrations were determined using an LC/MS/MS assay following liquid-liquid extraction of plasma samples. Bioavailability was calculated using the mean normalized AUC0-∞ values obtained following oral administration of 6 mg/kg relative to the mean normalized AUC0-∞ at 5 mg/kg IV.

[3] = 13-week dog toxicity and toxicokinetic study; assay type: in vivo; conditions: for AUC(0-t) / Cmax / Tmax: beagle, dog, in vivo; for AUC(0-t): read-out: AUC0-24; for body weight gain during the study: 20 mg/kg; for mean body weight lower than control: end of study
Method: […] For toxicology assessment, clinical observations, body weight, and food consumption measures were recorded periodically during the study. Ophthalmic examinations were performed and ECGs recorded during Weeks −1 and 12. Clinical pathology evaluations (hematology, serum chemistry, and urinalysis) were performed prior to the initiation of dose administration (Week −1) and prior to the scheduled necropsy (Week 13). At termination, complete necropsies were performed on all dogs and selected organs were weighed. Selected tissues from the control and 20 mg/kg/day group animals and animals euthanized in extremis were examined microscopically. Gross lesions from the 2 and 6 mg/kg/day groups were also examined.

[4] = Rat pilot developmental toxicity study
Method: Clinical observations, body weights, and food consumption were recorded periodically. On GD 20, a laparohysterectomy was performed on each surviving female. The uteri, placentas, and ovaries were examined; gravid uterine weights, the numbers of fetuses, early and late resorptions, total implantations, and corpora lutea were recorded. The fetuses were weighed, sexed, and examined for external malformations and developmental variations.

[5] = Rabbit pilot developmental toxicity study; assay type: in vivo; conditions: 30 mg/kg/day, GD 14
Method: On GD 29, a laparohysterectomy was performed on each surviving female.

[6] = Rat CNS study (functional observational battery, locomotor activity); conditions: Crl:CD(SD)IGS BR, in vivo; for mean rearing counts lower than control, 2-minute open field: po; for mean rearing counts lower than control, 2-minute open field / mean urination values higher than control: 1 h
Method: There were eight animals of each gender per group. Functional observational battery (FOB) assessments and automated 1-hour locomotor activity data were recorded for all animals 7 days prior to dose administration (pre-test), and again beginning 1 hour following dosing on Day 0. Following completion of the FOB and locomotor activity evaluations, all animals were euthanized and discarded.

[7] = Single-dose intravenous rat toxicology study; conditions: Crl:CD(SD)IGS BR, in vivo
Method: Clinical observations, body weights, and food consumption were noted periodically. All animals were euthanized following a minimum 13-day non-dosing (recovery) period. Clinical pathology evaluations (hematology and serum chemistry) were performed on all rats at the time of necropsy and selected organs were weighed. No microscopic examinations were performed.

[8] = Phase 1b multiple-dose placebo-controlled safety study, 8 weeks; assay type: in vivo, human
Source text: This Phase 1b study enrolled 46 male and female subjects.

[9] = female, po, 2 mg/kg/day, females, 2 mg/kg/day, Day 0
[10] = female, po, 2 mg/kg/day, females, 2 mg/kg/day, Day 86
[11] = female, po, 6 mg/kg/day, females, 6 mg/kg/day, Day 0
[12] = female, po, 6 mg/kg/day, females, 6 mg/kg/day, Day 86
[13] = female, po, 20 mg/kg/day, females, 20 mg/kg/day, Day 0
[14] = female, po, 20 mg/kg/day, females, 20 mg/kg/day, Day 86
[15] = male, po, 2 mg/kg/day, males, 2 mg/kg/day, Day 0
[16] = male, po, 2 mg/kg/day, males, 2 mg/kg/day, Day 86
[17] = male, po, 6 mg/kg/day, males, 6 mg/kg/day, Day 0
[18] = male, po, 6 mg/kg/day, males, 6 mg/kg/day, Day 86
[19] = male, po, 20 mg/kg/day, males, 20 mg/kg/day, Day 0
[20] = male, po, 20 mg/kg/day, males, 20 mg/kg/day, Day 86
[21] = 8 weeks, 25 to 75 mg BID, N = 31, Safety Population

In the case of O=C1NCC2(c3ccc(Cl)c(Cl)c3)CC12 (centres unmarked) [EB-10101, 5-(3,4-dichloro-phenyl)-3-aza-bicyclo[3.1.0]hexan-2-one], the “amount formed with NADPH vs without NADPH” value [1] is reported as roughly 5 fold.

Work on Clc1ccc([C@]23CNC[C@H]2C3)cc1Cl [amitifadine, (+)-1-(3,4-dichlorophenyl)-3-azabicyclo[3.1.0]hexane] yielded a bioavailability [2] of roughly 16%, an AUC(0-t) ([3]; female, oral, 6 mg/kg/day, females, 6 mg/kg/day, Day 86) of 15900 ng·h/mL and a Cmax [3, 9] of 635 ng/mL. For the same molecule, the Tmax [3, 9] was 1 h, the AUC(0-t) [3, 9] was 1480 ng·h/mL and the Cmax [3, 10] was 663 ng/mL. It also gave a Tmax [3, 10] of 1 h, an AUC(0-t) [3, 10] of 2150 ng·h/mL and a Cmax [3, 11] of 5120 ng/mL. The Tmax [3, 11] was 1 h, the AUC(0-t) [3, 11] was 13600 ng·h/mL and the Cmax [3, 12] was 4850 ng/mL. The Tmax [3, 12] was 1 h, the Cmax [3, 13] was 9280 ng/mL and the Tmax [3, 13] was 2 h. It also gave an AUC(0-t) [3, 13] of 63600 ng·h/mL, a Cmax [3, 14] of 8430 ng/mL and a Tmax [3, 14] of 1 h. The AUC(0-t) [3, 14] was 29600 ng·h/mL, the “body weight gain during the study” value ([3]; females) was 0.4 ± 0.79 kg and the “mean body weight lower than control” value ([3]; females, 20 mg/kg/day) was 9%. The AUC(0-t) ([3]; male, oral, 6 mg/kg/day, males, 6 mg/kg/day, Day 86) was 13100 ng·h/mL, the Cmax [3, 15] was 507 ng/mL and the Tmax [3, 15] was 1 h. The AUC(0-t) [3, 15] was 1570 ng·h/mL, the Cmax [3, 16] was 753 ng/mL and the Tmax [3, 16] was 1 h. It also gave an AUC(0-t) [3, 16] of 2280 ng·h/mL, a Cmax [3, 17] of 4640 ng/mL and a Tmax [3, 17] of 1 h. The AUC(0-t) [3, 17] was 12800 ng·h/mL, the Cmax [3, 18] was 4140 ng/mL and the Tmax [3, 18] was 1 h. The Cmax [3, 19] was 11400 ng/mL, the Tmax [3, 19] was 1 h and the AUC(0-t) [3, 19] was 47800 ng·h/mL. The Cmax [3, 20] was 7230 ng/mL, the Tmax [3, 20] was 1 h and the AUC(0-t) [3, 20] was 44000 ng·h/mL. The “body weight gain during the study” value ([3]; males) was -0.3 ± 0.58 kg, the “food consumption less than control” value ([3]; males, 20 mg/kg/day) was no less than 10% and the “mean body weight lower than control” value ([3]; males, 20 mg/kg/day) was 13%. The mean fetal weight ([4]; 25 mg/kg/day) was “statistically significant reduction in mean fetal weight”, the maternal mortality ([4]; 50 mg/kg/day, GD 8, 9 or 10) was “all females in the 50 mg/kg/day group were euthanized in extremis” and the maternal outcome [5] was “all females in the 30 mg/kg/day group were euthanized on GD 14”. The NOAEL ([6]; both sexes, single oral gavage, read-out: NOAEL for CNS toxicity) was 100 mg/kg, the “mean rearing counts lower than control, 2-minute open field” value (shortened to “mean rearing counts lower than control”) ([6]; female, 30 mg/kg) was 67.1% and the “mean rearing counts lower than control” value ([6]; female, 100 mg/kg) was 78.6%. For the same molecule, the “mean urination values higher than control” value ([6]; male, 10 mg/kg) was “approximately 3 fold”, the “mean urination values higher than control” value ([6]; male, 30 mg/kg) was “approximately 3 fold” and the “mean urination values higher than control” value ([6]; male, 100 mg/kg) was roughly 5 fold. For the same molecule, the “mean rearing counts lower than control” value ([6]; male, 100 mg/kg) was 56.5%, the NOAEL at 13 days ([7]; female rats) was 5 mg/kg and the NOAEL at 13 days ([7]; male rats) was 1.5 mg/kg. The “Abdomibal Pain Upper, % of subjects” value [8, 21] was 0.0%, the “Abdomibal Pain Upper, number of subjects with AE” value [8, 21] was 0 and the “Abdominal Pain Lower, % of subjects” value [8, 21] was 0.0%. The “Abdominal Pain Lower, number of subjects with AE” value [8, 21] was 0, the “Diarrhea, % of subjects” value [8, 21] was 6.5% and the “Diarrhea, number of subjects with AE” value [8, 21] was 2. For the same molecule, the “Dizziness, % of subjects” value [8, 21] was 6.5%, the “Dizziness, number of subjects with AE” value [8, 21] was 2 and the “Gastroesophageal Reflux Disease, % of subjects” value [8, 21] was 0.0%. For the same molecule, the “Gastroesophageal Reflux Disease, number of subjects with AE” value [8, 21] was 0, the “Headache, % of subjects” value [8, 21] was 22.6% and the “Headache, number of subjects with AE” value [8, 21] was 7. For the same molecule, the “Hyperhidrosis, % of subjects” value [8, 21] was 3.2%, the “Hyperhidrosis, number of subjects with AE” value [8, 21] was 1 and the “Increased Appetite, % of subjects” value [8, 21] was 3.2%. For the same molecule, the “Increased Appetite, number of subjects with AE” value [8, 21] was 1, the “Metrorrhagia, % of subjects” value [8, 21] was 3.2% and the “Metrorrhagia, number of subjects with AE” value [8, 21] was 1. The “Nausea, % of subjects” value [8, 21] was 16.1%, the “Nausea, number of subjects with AE” value [8, 21] was 5 and the “Pruritus, % of subjects” value [8, 21] was 3.2%. For the same molecule, the “Pruritus, number of subjects with AE” value [8, 21] was 1, the “Rhinitis Allergic, % of subjects” value [8, 21] was 3.2% and the “Rhinitis Allergic, number of subjects with AE” value [8, 21] was 1. The “Skin Rash, % of subjects” value [8, 21] was 3.2%, the “Skin Rash, number of subjects with AE” value [8, 21] was 1 and the “Subjects with at Least One AE, %” value [8, 21] was 35.5%. The “Syncope, % of subjects” value [8, 21] was 0.0%, the “Syncope, number of subjects with AE” value [8, 21] was 0 and the “Toothache, % of subjects” value [8, 21] was 3.2%. The “Toothache, number of subjects with AE” value [8, 21] was 1, the “Total Number of Subjects with at Least One AE” value [8, 21] was 11 and the “proportion of subjects with TEAEs” value ([8]; 25-75 mg BID, 8 weeks) was 36%. For the same molecule, the “Completed Subjects, %” value ([8]; Randomized Population, N = 31) was 74.2%, the “Premature discontinuation: Adverse Event, %” value ([8]; Randomized Population, N = 31) was 3.2% and the “Premature discontinuation: Allergic Reaction to Study Medication, %” value ([8]; Randomized Population, N = 31) was 3.2%. For the same molecule, the “Premature discontinuation: Lost to Follow Up, %” value ([8]; Randomized Population, N = 31) was 3.2%, the “Premature discontinuation: Other, %” value ([8]; Randomized Population, N = 31) was 9.7% and the “Premature discontinuation: Subject Requested Withdrawal, %” value ([8]; Randomized Population, N = 31) was 6.5%. The “Withdrawal/Early Termination, %” value ([8]; Randomized Population, N = 31) was 25.8%, the “reduction in mean triglyceride levels” value ([8]; end of treatment period) was roughly 29% and the “reduction in mean triglyceride levels” value ([8]; following 2 weeks of treatment) was roughly 23%. The “subjects who dropped out due to AEs” value ([8]; in vivo) was 3.2%.
